Test results as given in patent US20240398768A1, “METHODS OF TREATING SOLID TUMOR USING HETEROAROMATIC MACROCYCLIC ETHER COMPOUNDS” (Nuvalent, Inc., priority 2021, published 2024).

Test system: NIH3T3 cells expressing ROS1 fusions with G2032R
Test: Anchorage-independent colony formation assay
Format: cell-based
Conditions: at 100 nM
Protocol: Each inhibitor was paired with its own DMSO condition to serve as an accurate control. NIH3T3 cells expressing CD74-ROS1 or EZR-ROS1 wild-type or mutant fusions were plated in 0.4% agarose in complete medium at a density of 2,000 cells per 0.5 mL of agarose with DMSO or inhibitor at identical concentration to the bottom layer. Plates were incubated for 4 weeks, and each well was fed 3× per week with 75 μL of complete medium with or without inhibitor to match each plated condition to prevent drying of the agarose. Plates were read after 3 and 4 weeks using a GelCount™ (Oxford Optronix). Colony counts were averaged by condition and normalized to the colony counts from paired DMSO conditions. Data analysis and visualization was performed using Microsoft Excel and GraphPad Prism.

In the case of CN1CCN(c2ccc(C(=O)Nc3n[nH]c4ccc(Cc5cc(F)cc(F)c5)cc34)c(NC3CCOCC3)c2)CC1 [Entrectinib, reference compound], the “inhibition of colony formation” value is reported as “weaker effects”.
